Measurements: US12660819B2, “Herbicidal derivatives” (SYNGENTA CROP PROTECTION AG, priority 2020, dated 2026)

What was measured:
Format in all cases: in vivo
[1] = test system: Abutilon theophrasti (ABUTH); assay: Post-emergence Test (glasshouse, percentage damage to the plant); conditions: post-emergence spray, 1000 g/ha unless otherwise stated, evaluated after 13 days
Procedure, shortened: (§1)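 Seeds sown in pots in glasshouse (24/16 °C day/night, 14 h light, 65% humidity), then sprayed with compound at 1000 g/ha unless stated, from acetone/water 50:50 with 0.5% Tween 20. Damage assessed 13 days later on five-point scale (1=0–20% to 5=81–100%).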

[2] = test system: Amaranthus retoflexus (AMARE); assay: as above; conditions: post-emergence spray, 1000 g/ha unless otherwise stated, evaluated after 13 days
Procedure, shortened: as §1

[3] = test system: Echinochloa crus-galli (ECHCG); assay: as above; conditions: post-emergence spray, 1000 g/ha unless otherwise stated, evaluated after 13 days
Procedure, shortened: as §1

[4] = test system: Ipomoea hederacea (IPOHE); assay: as above; conditions: post-emergence spray, 1000 g/ha unless otherwise stated, evaluated after 13 days
Procedure, shortened: (§2)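 Sown pots; spray 1000 g/ha (unless stated) in acetone/water 50:50 + 0.5% Tween 20; glasshouse 24/16 °C, 14 h light, 65% RH; watered twice daily; % damage read at 13 days, scored 1–5.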

Setaria faberi (SETFA) [5] = assay: as above; conditions: post-emergence spray, 1000 g/ha unless otherwise stated, evaluated after 13 days
Procedure, shortened: as §2

Zea mays (ZEAMX) [6] = assay: as above; conditions: post-emergence spray, 1000 g/ha unless otherwise stated, evaluated after 13 days
Procedure, shortened: as §2

[7] = test system: Amaranthus retoflexus (AMARE); assay: Pre-emergence Test (glasshouse, percentage damage to the plant); conditions: 1000 g/ha unless otherwise stated, five-point scale
Setaria faberi (SETFA) [8] = assay: as above; conditions: 1000 g/ha unless otherwise stated, five-point scale
[9] = test system: Echinochloa crus-galli (ECHCG); assay: as above; conditions: 1000 g/ha unless otherwise stated, five-point scale
[10] = test system: Ipomoea hederacea (IPOHE); assay: as above; conditions: 1000 g/ha unless otherwise stated, five-point scale
[11] = test system: Abutilon theophrasti (ABUTH); assay: as above; conditions: 1000 g/ha unless otherwise stated, five-point scale
Zea mays (ZEAMX) [12] = assay: as above; conditions: 1000 g/ha unless otherwise stated, five-point scale

Row | Compound | Post-emergence Test ABUTH, percentage damage to the plant (five-point scale) [1] | Post-emergence Test AMARE, percentage damage to the plant (five-point scale) [2] | Post-emergence Test ECHCG, percentage damage to the plant (five-point scale) [3] | Post-emergence Test IPOHE, percentage damage to the plant (five-point scale) [4] | Post-emergence Test SETFA, percentage damage to the plant (five-point scale) (Setaria faberi (SETFA) [5]) | Post-emergence Test ZEAMX, percentage damage to the plant (five-point scale) (Zea mays (ZEAMX) [6]) | percentage damage to the plant, AMARE [7] | percentage damage to the plant, SETFA (Setaria faberi (SETFA) [8]) | percentage damage to the plant, ECHCG [9] | percentage damage to the plant, IPOHE [10] | percentage damage to the plant, ABUTH [11] | percentage damage to the plant, ZEAMX (Zea mays (ZEAMX) [12])
1 | CCn1c(C)c(-c2cccs2)c(=O)c(C(=O)O)c1-c1ccc(Cl)c(Cl)c1 [Compound 74, 2-(3,4-dichlorophenyl)-1-ethyl-6-methyl-4-oxo-5-(2-thienyl)pyridine-3-carboxylic acid] | 3 (3=41-60%) | 1 (1=0-20%) | 3 (3=41-60%) | 2 (2=21-40%) | 3 (3=41-60%) | 2 (2=21-40%) | 1 (1=0-20%) | 4 (4=61-80%) | 3 (3=41-60%) | 1 (1=0-20%) | 2 (2=21-40%) | 1 (1=0-20%)
2 | CCn1c(C)c(-c2cc(F)c(OC)c(Cl)c2)c(=O)c(C(=O)O)c1-c1ccc(Cl)c(Cl)c1 [Compound 75, 5-(3-chloro-5-fluoro-4-methoxy-phenyl)-2-(3,4-dichlorophenyl)-1-ethyl-6-methyl-4-oxo-pyridine-3-carboxylic acid] | 2 (2=21-40%) | 1 (1=0-20%) | 1 (1=0-20%) | 2 (2=21-40%) | 1 (1=0-20%) | 1 (1=0-20%) | 1 (1=0-20%) | 1 (1=0-20%) | 1 (1=0-20%) | 1 (1=0-20%) | 1 (1=0-20%) | 1 (1=0-20%)
3 | CCn1c(C)c(-c2ccc(C(F)F)cc2)c(=O)c(C(=O)O)c1-c1ccc(Cl)c(Cl)c1 [Compound 76, 2-(3,4-dichlorophenyl)-5-[4-(difluoromethyl)phenyl]-1-ethyl-6-methyl-4-oxo-pyridine-3-carboxylic acid] | 3 (3=41-60%) | 1 (1=0-20%) | 2 (2=21-40%) | 2 (2=21-40%) | 3 (3=41-60%) | 1 (1=0-20%) | 1 (1=0-20%) | 3 (3=41-60%) | 1 (1=0-20%) | 2 (2=21-40%) | 2 (2=21-40%) | 1 (1=0-20%)
4 | CCn1c(C)c(-c2cc(F)cc(C#N)c2)c(=O)c(C(=O)O)c1-c1ccc(Cl)c(Cl)c1 [Compound 78, 5-(3-cyano-5-fluoro-phenyl)-2-(3,4-dichlorophenyl)-1-ethyl-6-methyl-4-oxo-pyridine-3-carboxylic acid] | 2 (2=21-40%) | 1 (1=0-20%) | 2 (2=21-40%) | 1 (1=0-20%) | 3 (3=41-60%) | 1 (1=0-20%) | 2 (2=21-40%) | 4 (4=61-80%) | 3 (3=41-60%) | 2 (2=21-40%) | 1 (1=0-20%) | 1 (1=0-20%)
5 | CCn1c(C)c(-c2cc(F)cc(F)c2)c(=O)c(C(=O)O)c1-c1ccc(Cl)c(Cl)c1 [Compound 79, 2-(3,4-dichlorophenyl)-5-(3,5-difluorophenyl)-1-ethyl-6-methyl-4-oxo-pyridine-3-carboxylic acid] | 2 (2=21-40%) | 1 (1=0-20%) | 1 (1=0-20%) | 2 (2=21-40%) | 2 (2=21-40%) | 1 (1=0-20%) | 3 (3=41-60%) | 5 (5=81-100%) | 1 (1=0-20%) | 2 (2=21-40%) | 3 (3=41-60%) | 2 (2=21-40%)
6 | CCn1c(C)c(-c2cc(C)cc(C#N)c2)c(=O)c(C(=O)O)c1-c1ccc(Cl)c(Cl)c1 [Compound 80, 5-(3-cyano-5-methyl-phenyl)-2-(3,4-dichlorophenyl)-1-ethyl-6-methyl-4-oxo-pyridine-3-carboxylic acid] | 3 (3=41-60%) | 3 (3=41-60%) | 1 (1=0-20%) | 1 (1=0-20%) | 3 (3=41-60%) | 1 (1=0-20%) | 1 (1=0-20%) | 4 (4=61-80%) | 1 (1=0-20%) | 1 (1=0-20%) | 1 (1=0-20%) | 1 (1=0-20%)
7 | CCn1c(C)c(-c2ccc(OC)c(C(F)(F)F)c2)c(=O)c(C(=O)O)c1-c1ccc(Cl)c(Cl)c1 [Compound 81, 2-(3,4-dichlorophenyl)-1-ethyl-5-[4-methoxy-3-(trifluoromethyl)phenyl]-6-methyl-4-oxo-pyridine-3-carboxylic acid] | 3 (3=41-60%) | 2 (2=21-40%) | 3 (3=41-60%) | 2 (2=21-40%) | 3 (3=41-60%) | 1 (1=0-20%) | 1 (1=0-20%) | 4 (4=61-80%) | 1 (1=0-20%) | 1 (1=0-20%) | 1 (1=0-20%) | 1 (1=0-20%)
8 | CCn1c(C)c(-c2cc(Cl)cc(C(F)(F)F)c2)c(=O)c(C(=O)O)c1-c1ccc(Cl)c(Cl)c1 [Compound 82, 5-[3-chloro-5-(trifluoromethyl)phenyl]-2-(3,4-dichlorophenyl)-1-ethyl-6-methyl-4-oxo-pyridine-3-carboxylic acid] | 2 (2=21-40%) | 1 (1=0-20%) | 1 (1=0-20%) | 1 (1=0-20%) | 1 (1=0-20%) | 1 (1=0-20%) | 2 (2=21-40%) | 2 (2=21-40%) | 1 (1=0-20%) | 1 (1=0-20%) | 1 (1=0-20%) | 1 (1=0-20%)
9 | CCn1c(C)c(-c2ccc(Cl)c(C(=O)NC3CC3)c2)c(=O)c(C(=O)O)c1-c1ccc(Cl)c(Cl)c1 [Compound 83, 5-[4-chloro-3-(cyclopropylcarbamoyl)phenyl]-2-(3,4-dichlorophenyl)-1-ethyl-6-methyl-4-oxo-pyridine-3-carboxylic acid] | 2 (2=21-40%) | 1 (1=0-20%) | 1 (1=0-20%) | 1 (1=0-20%) | 2 (2=21-40%) | 1 (1=0-20%) | 1 (1=0-20%) | 1 (1=0-20%) | 1 (1=0-20%) | 1 (1=0-20%) | 1 (1=0-20%) | 1 (1=0-20%)
